Legend:
Leishmania donovani = assay: Antiprotozoal activity against Leishmania donovani MHOM/ET/67/L82 at pH 7.4 by microplate assay; type: functional, organism-based
[1] = Selectivity index, ratio of IC50 for rat L6 cells to IC50 for Trypanosoma cruzi Tulahuen C4; type: toxicity, cell-based; conditions: read-out: Ratio IC50
Trypanosoma cruzi = assay: Antiprotozoal activity against Trypanosoma cruzi Tulahuen C4 at pH 7.4 by microplate assay; type: functional, organism-based
[2] = test system: Trypanosoma brucei rhodesiense; assay: Antiprotozoal activity against Trypanosoma brucei rhodesiense STIB900 at pH 7.4 by microplate assay; type: functional, organism-based
L6 = assay: Cytotoxicity against rat L6 cells; type: cell-based
[3] = Selectivity index, ratio of IC50 for rat L6 cells to IC50 for Trypanosoma brucei rhodesiense STIB900; type: toxicity, cell-based; conditions: read-out: Ratio IC50
Plasmodium falciparum = assay: Antimalarial activity against Plasmodium falciparum K1 at pH 7.4 by microplate assay; type: functional, organism-based
[4] = Selectivity index, ratio of IC50 for rat L6 cells to IC50 for Plasmodium falciparum K1; type: toxicity, cell-based; conditions: read-out: Ratio IC50
[5] = Selectivity index, ratio of IC50 for rat L6 cells to IC50 for Leishmania donovani MHOM/ET/67/L82; type: toxicity, cell-based; conditions: read-out: Ratio IC50

| Compound | IC50 (Leishmania donovani) [µM] | selectivity ratio [1] | IC50 (Trypanosoma cruzi) [µM] | IC50 [2] [µM] | IC50 (L6) [µM] | selectivity ratio [3] | IC50 (Plasmodium falciparum) [µM] | selectivity ratio [4] | selectivity ratio [5] |
| --- | --- | --- | --- | --- | --- | --- | --- | --- | --- |
| CCN(CC)c1ccc2nc3c4ccccc4/c(=N\c4ccccc4)cc-3oc2c1 | 20.1 | < 0.79 | > 229 | 88.5 | 180 | 2.03 | 0.208 | 863 | 8.94 |
| CCN(CC)c1ccc2nc3c4ccccc4/c(=N\c4ccc([N+](=O)[O-])cc4)cc-3oc2c1 | > 205 | 0.91 | 56.9 | 198 | 51.9 | 0.26 | 0.135 | 386 | < 0.25 |
| CCN(CC)c1ccc2nc3c4ccccc4/c(=N\c4ccc(C)cc4)cc-3oc2c1 | 10.7 | 6.42 | 20.9 | 36.2 | 134 | 3.71 | 0.253 | 531 | 12.5 |
| O=C(Cn1ccnc1[N+](=O)[O-])NCc1ccccc1 [BENZNIDAZOLE] | – | – | 0.886 | – | – | – | – | – | – |
| CCN(CC)c1ccc2nc3c4ccccc4/c(=N\c4cccc(OC)c4)cc-3oc2c1 | 2.9 | 0.28 | 143 | 11.3 | 39.6 | 3.52 | 0.045 | 883 | 13.9 |
| CCN(CC)c1ccc2nc3c4ccccc4/c(=N\c4ccc(OC)cc4)cc-3oc2c1 | 5.2 | 2.82 | 20.3 | 14.9 | 57.2 | 3.84 | 0.04 | 1420 | 10.9 |
| CCN(CC)c1ccc2nc3c4ccccc4/c(=N\c4ccccc4Cl)cc-3oc2c1 | 23.3 | 0.71 | 78.8 | 85.4 | 56.2 | 0.66 | 0.215 | 261 | 2.41 |
| CCN(CC)c1ccc2nc3c4ccccc4/c(=N\c4cccc(Cl)c4)cc-3oc2c1 | 28.6 | 1.68 | 76.7 | 129 | 129 | 1 | 0.209 | 617 | 4.5 |
| CCN(CC)c1ccc2nc3c4ccccc4/c(=N\c4ccc([N+](=O)[O-])cc4C#N)cc-3oc2c1 | 90.6 | 0.43 | 144 | 147 | 61.8 | 0.42 | 0.205 | 302 | 0.68 |
| CCN(CC)c1ccc2nc3c4ccccc4/c(=N\c4ccc([N+](=O)[O-])cc4Cl)cc-3oc2c1 | 70.5 | 1.34 | 10.9 | 184 | 14.6 | 0.08 | 1.93 | 8 | 0.21 |

From ChEMBL document CHEMBL1833875, “Synthesis and in vitro antiprotozoal activities of 5-phenyliminobenzo[a]phenoxazine derivatives” (Bioorg Med Chem Lett, 2011)
